Measured values reported in US10781215B2, “Heterobicyclic compounds useful as modulators of IL-12, IL-23 and/or IFNα responses” (BRISTOL-MYERS SQUIBB COMPANY, priority 2016, dated 2020).

Experiments:
[1] = biological target: T1, human Tyk2 (amino acids 575-869, His-tagged) (Homo sapiens, UniProt P29597); experiment: Probe displacement assay (SPA format); format: binding; settings: radiolabeled probe 40 nM, Tyk2 2.5 nM
T1 construct: made in house
Description: Probe Displacement Assay (SPA Format) The probe displacement assay is conducted as follows: In a […], test compounds along with recombinantly expressed His-tagged protein corresponding to amino acids 575-869 of human Tyk2 (sequence shown below) at 2.5 nM, 40 nM ((R)—N-(1-(3-(8-methyl-5-(methylamino)-8H-imidazo [4,5-d]thiazolo [5,4-b]pyridin-2-yl)phenyl)ethyl)-2-([^3H]methylsulfonyl)benzamide) (preparation described below) and 80 μg/mL Copper His-Tag scintillation proximity assay beads (Perkin Elmer, Catalog # RPNQ0095) in 50 mM HEPES, pH 7.5, containing 100 μg/mL bovine serum albumin and 5% DMSO were incubated for 30 minutes at room temperature. The amount of radiolabeled probe (preparation described below) bound to Tyk2 was then quantified by scintillation counting, and the inhibition by the test compound calculated by comparison to wells either with no inhibitor (0% inhibition) or without Tyk2 (100% inhibition). The EC50 value is defined as the concentration of test compound required to inhibit radiolabeled probe binding by 50%. Probe Displacement Assay (HTRF Format)

[2] = system: IL-23 stimulated Kit225 T cells (STAT-dependent luciferase reporter); experiment: Kit225 T cell assay, IL-23 stimulated STAT-dependent luciferase reporter; format: cell-based; settings: 20 ng/mL human recombinant IL-23, 5-6 hours
Description: (§1) Kit225 T cells with a stably-integrated STAT-dependent luciferase reporter were plated in RPMI (Gibco) containing 10% heat-inactivated FBS (Gibco) and 100 U/mL PenStrep (Gibco). The cells were then stimulated with either 20 ng/mL human recombinant IL-23 or 200 U/mL human recombinant IFNα (PBL InterferonSource) for 5-6 hours. Luciferase expression was measured using the STEADY-GLO® Luciferase Assay System (Promega) according to the manufacturer's instructions. Inhibition data were calculated by comparison to no inhibitor control wells for 0% inhibition and non-stimulated control wells for 100% inhibition. Dose response curves were generated to determine the concentration required to inhibit 50% of cellular response (IC50) as derived by non-linear regression analysis.

[3] = system: IFNα stimulated Kit225 T cells (STAT-dependent luciferase reporter); experiment: Kit225 T cell assay, IFNα stimulated STAT-dependent luciferase reporter; format: cell-based; settings: 200 U/mL human recombinant IFNα, 5-6 hours
Description: as §1

T1 sequence (P29597 with tags, fused parts or gaps): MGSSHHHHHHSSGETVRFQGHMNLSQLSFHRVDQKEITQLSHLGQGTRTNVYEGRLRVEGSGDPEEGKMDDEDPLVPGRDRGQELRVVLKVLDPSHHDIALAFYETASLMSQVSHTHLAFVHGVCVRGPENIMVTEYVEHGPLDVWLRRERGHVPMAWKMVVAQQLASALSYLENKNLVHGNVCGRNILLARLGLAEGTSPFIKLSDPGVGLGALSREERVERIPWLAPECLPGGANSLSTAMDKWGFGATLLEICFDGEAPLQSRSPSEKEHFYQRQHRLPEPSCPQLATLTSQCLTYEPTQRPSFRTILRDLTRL

SMILES	EC50 [1]	IC50 [2]	IC50 [3]
Cc1nc2c(Nc3ccccc3S(C)(=O)=O)cc(Nc3ccc(C#N)c(C)n3)nc2[nH]1 [Example 25, 6-({7-[(2-methanesulfonylphenyl)amino]-2-methyl-3H-imidazo[4,5-b]pyridin-5-yl}amino)-2-methylpyridine-3-carbonitrile]	0.007 µM	0.205 µM	0.126 µM
Cc1nc2c(Nc3ccccc3S(C)(=O)=O)cc(Nc3cc(C#N)ccn3)nc2[nH]1 [Example 3, 2-({7-[(2-methanesulfonylphenyl)amino]-2-methyl-3H-imidazo[4,5-b]pyridin-5-yl}amino)pyridine-4-carbonitrile]	0.012 µM	0.275 µM	0.19 µM
Cc1nc2c(Nc3ccccc3S(C)(=O)=O)cc(Nc3cc(C)c(C#N)c(C)n3)nc2[nH]1 [Example 28, 6-({7-[(2-methanesulfonylphenyl)amino]-2-methyl-3H-imidazo[4,5-b]pyridin-5-yl}amino)-2,4-dimethylpyridine-3-carbonitrile]	0.009 µM	0.07 µM	0.053 µM
Cc1nc2c(Nc3ccccc3S(C)(=O)=O)cc(Nc3ccc(C(F)(F)F)cn3)nc2[nH]1 [Example 10, 7-N-(2-methanesulfonylphenyl)-2-methyl-5-N-[5-(trifluoromethyl)pyridin-2-yl]-3H-imidazo[4,5-b]pyridine-5,7-diamine]	0.013 µM	0.143 µM	0.19 µM
COc1ccccc1Nc1cc(Nc2ccc(N3CCOCC3)cn2)nc2[nH]c(C)nc12 [Example 37, 7-N-(2-methoxyphenyl)-2-methyl-5-N-[5-(morpholin-4-yl)pyridin-2-yl]-3H-imidazo[4,5-b]pyridine-5,7-diamine]	0.432 µM	3.88 µM	1.03 µM
Cc1cc(Nc2cc(Nc3ccccc3S(C)(=O)=O)c3nc(C)[nH]c3n2)nc(C)n1 [Example 4, 5-N-(2,6-dimethylpyrimidin-4-yl)-7-N-(2-methanesulfonylphenyl)-2-methyl-3H-imidazo[4,5-b]pyridine-5,7-diamine]	0.012 µM	0.347 µM	0.196 µM
Cc1nc2c(Nc3ccccc3S(C)(=O)=O)cc(Nc3ccn4nccc4n3)nc2[nH]1 [Example 27, 7-N-(2-methanesulfonylphenyl)-2-methyl-5-N-{pyrazolo[1,5-a]pyrimidin-5-yl}-3H-imidazo[4,5-b]pyridine-5,7-diamine]	0.004 µM	0.327 µM	0.123 µM
Cc1nc2c(Nc3ccccc3S(C)(=O)=O)cc(Nc3ccn(C)n3)nc2[nH]1 [Example 22, 7-N-(2-methanesulfonylphenyl)-2-methyl-5-N-(1-methyl-1H-pyrazol-3-yl)-3H-imidazo[4,5-b]pyridine-5,7-diamine]		0.37 µM	0.264 µM
COc1ccccc1Nc1cc(NC(=O)C2CC2)nc2[nH]c(C)nc12 [Example 35, N-{7-[(2-methoxyphenyl)amino]-2-methyl-3H-imidazo[4,5-b]pyridin-5-yl}cyclopropanecarboxamide]	0.814 µM	3.15 µM	5.13 µM
Cc1nc2c(Nc3ccccc3S(C)(=O)=O)cc(Nc3ccc(C(N)=O)cn3)nc2[nH]1 [Example 14, 6-({7-[(2-methanesulfonylphenyl)amino]-2-methyl-3H-imidazo[4,5-b]pyridin-5-yl}amino)pyridine-3-carboxamide]	0.011 µM	7.86 µM	6.08 µM
COc1ccc(Nc2cc(Nc3ccccc3S(C)(=O)=O)c3nc(C)[nH]c3n2)nn1 [Example 19, 7-N-(2-methanesulfonylphenyl)-5-N-(6-methoxypyridazin-3-yl)-2-methyl-3H-imidazo[4,5-b]pyridine-5,7-diamine]	0.019 µM	0.48 µM	0.732 µM
Cc1nc2c(Nc3ccccc3S(C)(=O)=O)cc(Nc3cccc(C(F)(F)F)n3)nc2[nH]1 [Example 23, 7-N-(2-methanesulfonylphenyl)-2-methyl-5-N-[6-(trifluoromethyl)pyridin-2-yl]-3H-imidazo[4,5-b]pyridine-5,7-diamine]	0.005 µM	0.081 µM	0.044 µM
Cc1nc2c(Nc3ccccc3S(C)(=O)=O)nc(Nc3ccc(F)cc3)nc2[nH]1 [Example 1, N2-(4-fluorophenyl)-8-methyl-N6-(2-(methylsulfonyl)phenyl)-9H-purine-2,6-diamine]	0.27 µM	1.41 µM	4.26 µM
Cc1nc2c(Nc3ccccc3S(C)(=O)=O)cc(Nc3cc(F)ccn3)nc2[nH]1 [Example 17, 5-N-(4-fluoropyridin-2-yl)-7-N-(2-methanesulfonylphenyl)-2-methyl-3H-imidazo[4,5-b]pyridine-5,7-diamine]	0.015 µM	0.104 µM	0.128 µM
Cc1nc2c(Nc3ccccc3S(C)(=O)=O)cc(Nc3cc(C)n(C)n3)nc2[nH]1 [Example 26, 5-N-(1,5-dimethyl-1H-pyrazol-3-yl)-7-N-(2-methanesulfonylphenyl)-2-methyl-3H-imidazo[4,5-b]pyridine-5,7-diamine]	0.015 µM	0.14 µM	0.119 µM
Cc1cccc(Nc2cc(Nc3ccccc3S(C)(=O)=O)c3nc(C)[nH]c3n2)n1 [Example 29, 7-N-(2-methanesulfonylphenyl)-2-methyl-5-N-(6-methylpyridin-2-yl)-3H-imidazo[4,5-b]pyridine-5,7-diamine]	0.006 µM	0.021 µM	0.035 µM
Cc1nc2c(Nc3ccccc3S(C)(=O)=O)cc(Nc3ccc(N4CCOCC4)cn3)nc2[nH]1 [Example 5, 7-N-(2-methanesulfonylphenyl)-2-methyl-5-N-[5-(morpholin-4-yl)pyridin-2-yl]-3H-imidazo[4,5-b]pyridine-5,7-diamine]	0.011 µM	0.19 µM	0.161 µM
COc1c(Nc2cc(NC(=O)C3CC3)nc3[nH]c(C)nc23)cccc1-c1ncn(C)n1 [Example 39, N-(7-{[2-methoxy-3-(1-methyl-1H-1,2,4-triazol-3-yl)phenyl]amino}-2-methyl-3H-imidazo[4,5-b]pyridin-5-yl)cyclopropanecarboxamide]	0.017 µM	3.01 µM	2.72 µM
Cc1nc2c(Nc3ccccc3S(C)(=O)=O)cc(Nc3ccc(N4CCC(C)(O)CC4)cn3)nc2[nH]1 [Example 9, 1-[6-({7-[(2-methanesulfonylphenyl)amino]-2-methyl-3H-imidazo[4,5-b]pyridin-5-yl}amino)pyridin-3-yl]-4-methylpiperidin-4-ol]	0.017 µM	0.854 µM	0.564 µM
Cc1nc2c(Nc3ccccc3C(N)=O)cc(Nc3ccc(F)cn3)nc2[nH]1 [Example 32, 2-({5-[(5-fluoropyridin-2-yl)amino]-2-methyl-3H-imidazo[4,5-b]pyridin-7-yl}amino)benzamide]	0.167 µM	3.31 µM	1.16 µM
Cc1nc2c(Nc3ccccc3S(C)(=O)=O)cc(NC(=O)C3CC3)nc2[nH]1 [Example 7, N-{7-[(2-methanesulfonylphenyl)amino]-2-methyl-3H-imidazo[4,5-b]pyridin-5-yl}cyclopropanecarboxamide]	0.014 µM	0.718 µM	0.285 µM
Cc1nc2c(Nc3ccccc3S(C)(=O)=O)cc(Nc3ccc(N4CCCC4=O)cn3)nc2[nH]1 [Example 24, 1-[6-({7-[(2-methanesulfonylphenyl)amino]-2-methyl-3H-imidazo[4,5-b]pyridin-5-yl}amino)pyridin-3-yl]pyrrolidin-2-one]	0.015 µM	1.23 µM	0.636 µM
Cc1ccnc(Nc2cc(Nc3ccccc3S(C)(=O)=O)c3nc(C)[nH]c3n2)c1 [Example 20, 7-N-(2-methanesulfonylphenyl)-2-methyl-5-N-(4-methylpyridin-2-yl)-3H-imidazo[4,5-b]pyridine-5,7-diamine]	0.053 µM	0.407 µM	0.401 µM
Cc1nc2c(Nc3ccccc3C(N)=O)cc(Nc3ccc(N4CCOCC4)cn3)nc2[nH]1 [Example 34, 2-[(2-methyl-5-{[5-(morpholin-4-yl)pyridin-2-yl]amino}-3H-imidazo[4,5-b]pyridin-7-yl)amino]benzamide]		4.38 µM	5.12 µM
Cc1cc(Nc2cc(Nc3ccccc3C(N)=O)c3nc(C)[nH]c3n2)nc(C)n1 [Example 33, 2-({5-[(2,6-dimethylpyrimidin-4-yl)amino]-2-methyl-3H-imidazo[4,5-b]pyridin-7-yl}amino)benzamide]		1.96 µM	1.22 µM
